# Counter-ions that a name gives are not always drawn.
# Target: T1, human adrenaline α1A receptor (Homo sapiens, UniProt P35348)
# T1 construct: expressed in transfected cells
# T1 sequence (P35348 1-466): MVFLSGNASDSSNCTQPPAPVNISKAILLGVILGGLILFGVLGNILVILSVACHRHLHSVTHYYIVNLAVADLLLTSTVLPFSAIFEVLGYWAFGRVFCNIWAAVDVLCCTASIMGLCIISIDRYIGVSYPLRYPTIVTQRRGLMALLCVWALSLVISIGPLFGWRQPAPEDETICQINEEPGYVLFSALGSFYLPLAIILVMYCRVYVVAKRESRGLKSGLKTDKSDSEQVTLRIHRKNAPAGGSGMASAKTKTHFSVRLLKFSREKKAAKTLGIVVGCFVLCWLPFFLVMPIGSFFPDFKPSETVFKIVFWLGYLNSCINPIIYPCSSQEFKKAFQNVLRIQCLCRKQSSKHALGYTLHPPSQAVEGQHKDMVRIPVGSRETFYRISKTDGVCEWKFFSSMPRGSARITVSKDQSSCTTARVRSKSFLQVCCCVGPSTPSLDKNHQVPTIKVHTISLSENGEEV
# Test: α1A receptor binding inhibitory activity, [3H]-Prazosin binding to CHO-K1 membrane fraction
# Conditions: inhibition of [3H]-Prazosin (2.5 nM) binding to membrane fraction of CHO-K1 cells expressing human α1A receptor
# Protocol: b) Measurement of α1 A Receptor Binding Inhibitory Activity
# The genetic engineering procedures as described below were based on the methods described in the textbook (Maniatis, et al., Molecular Cloning, Cold Spring Harbor Laboratory, 1989) or the methods described in the protocols attached to the reagents.
# (i) Preparation of Expression Plasmid of Human Adrenaline α1 A Receptor
# An adrenaline α1 A receptor gene was cloned from human liver cDNA by means of a PCR method. PCR reaction was performed in a Gene Amp PCR System 9700 (Applied Biosystems) with 200 ng of a human liver cDNA library (Takara Shuzo Co., Ltd.) as a template, by adding 50 pmol of each of the primer sets shown below which were prepared with referring to the base sequence of the adrenaline α1 A receptor gene reported by Hirasawa A. et al. (Biochem. Biophys. Res. Commun., 195, 902-909 (1993)): 5′-[…]-3′ [SEQ ID NO: 1], and 5′-[…]-3′ [SEQ ID NO: 2], and using a TaKaRa Pyrobest DNA Polymerase (Takara Shuzo Co., Ltd.) (reaction condition: 45 cycles of 94° C. for 15 seconds and 68° C. for 3 minutes and 30 seconds).
# Thus obtained PCR fragments were digested with a restriction enzyme Eco RI (Takara Shuzo Co., Ltd.) and Sal I (Takara Shuzo Co., Ltd.), and then subjected to electrophoresis on agarose gel to recover DNA fragments. […]
row,Structure (SMILES),IC50
1,"NS(=O)(=O)c1cc(C(=O)CCCCNCCc2ccccc2OC(F)(F)F)cc2c1OCC2 [Example 6, 5-[5-({2-[2-(Trifluoromethoxy)phenyl]ethyl}amino)-pentanoyl]-2,3-dihydro-1-benzofuran-7-sulfonamide tosylate]",0.019 µM
2,"COc1ccccc1N1CCN(CCCNc2cc(=O)n(C)c(=O)n2C)CC1 [Urapidil, urapidil, reference compound]",0.47 µM

# Target: T2, acetylcholinesterase from human erythrocyte origin (Homo sapiens, UniProt P22303)
# T2 construct: Acetylcholinesterase from human erythrocyte origin (Sigma Chemical Co.); purchased Sigma Chemical Co; host or cells: human erythrocytes (tissue-derived enzyme)
# Test: Acetylcholinesterase-inhibitory action, acetylthiocholine method (Ellman method)
# Format: biochemical
# Conditions: repeated at least 3 times, read-out: AChE: IC50
# Protocol: a) Measurement of Acetylcholinesterase-Inhibitory Action
# Acetylcholinesterase-inhibitory action of the Example Compounds was measured using acetylcholinesterase from human erythrocyte origin according to the acetylthiocholine method (Ellman method).
# Acetylcholinesterase from human erythrocyte origin (Sigma Chemical Co.) was dissolved in distilled water at a concentration of 0.2 IU/mL to give an enzyme authentic sample. To a 96-well microplate 20 μL of drug solution, 30 μL of 80 mM Tris-HCl (pH 7.4), 50 μL of enzyme authentic sample and 50 μL of 5 mM 5,5-dithio-bis(2-nitrobenzoic acid) (Sigma Chemical Co.) were added, and the plate was shaken for 10 seconds. Then, 50 μL of acetylthiocholine iodide (Sigma Chemical Co.) was added, and the plate was again shaken. Immediately after shaking, absorbance at 414 nm was measured at intervals of 30 seconds for 10 minutes.
# The experiment was repeated at least 3 times for each compound to obtain 50% inhibitory concentration (IC50). Moreover, in the same manner as mentioned above, acetylcholinesterase-inhibiting activity of distigmine was measured.
# T2 sequence (P22303 32-617 isoform P22303-2 limits assumed): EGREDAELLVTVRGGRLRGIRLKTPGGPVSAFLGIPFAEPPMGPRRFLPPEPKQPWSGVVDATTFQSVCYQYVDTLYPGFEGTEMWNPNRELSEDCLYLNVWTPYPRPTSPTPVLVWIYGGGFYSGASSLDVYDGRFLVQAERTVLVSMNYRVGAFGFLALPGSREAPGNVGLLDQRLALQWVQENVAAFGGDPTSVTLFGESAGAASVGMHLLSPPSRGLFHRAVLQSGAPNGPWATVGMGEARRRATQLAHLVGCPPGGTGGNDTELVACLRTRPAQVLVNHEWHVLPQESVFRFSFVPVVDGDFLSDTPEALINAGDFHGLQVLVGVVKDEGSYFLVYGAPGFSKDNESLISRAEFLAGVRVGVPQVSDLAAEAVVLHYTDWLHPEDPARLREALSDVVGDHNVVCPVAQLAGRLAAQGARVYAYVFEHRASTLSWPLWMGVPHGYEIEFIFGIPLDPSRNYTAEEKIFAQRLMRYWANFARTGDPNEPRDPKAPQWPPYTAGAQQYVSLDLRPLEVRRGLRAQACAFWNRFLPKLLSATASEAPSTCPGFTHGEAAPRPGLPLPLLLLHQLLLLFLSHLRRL
row,Structure (SMILES),IC50
1,"CN(CCCCCCN(C)C(=O)Oc1ccc[n+](C)c1)C(=O)Oc1ccc[n+](C)c1 [Distigmine, distigmine, reference compound]",0.27 µM
2,"NS(=O)(=O)c1cc(C(=O)CCCCNCCc2ccccc2OC(F)(F)F)cc2c1OCC2 [Example 6, 5-[5-({2-[2-(Trifluoromethoxy)phenyl]ethyl}amino)-pentanoyl]-2,3-dihydro-1-benzofuran-7-sulfonamide tosylate]",0.08 µM

# Tested on: not given
# Test: not given
# Conditions: not given
row,melting point,Structure (SMILES)
1,139 to 141 °C,Cl.NS(=O)(=O)c1cc(C(=O)CCCCNCCc2ccccc2OC(F)(F)F)cc2c1CCC2
2,85 to 87 °C,Cl.NS(=O)(=O)c1cc(C(=O)CCCCCNCCc2ccccc2OC(F)(F)F)cc2c1OCC2
3,92 to 94 °C,COc1ccccc1CCNCCCCCC(=O)c1cc2c(c(S(N)(=O)=O)c1)OCC2.Cl
4,107 to 109 °C,Cl.NS(=O)(=O)c1cc(C(=O)CCCCCNCCc2ccccc2Cl)cc2c1OCC2
5,135 to 137 °C,CNS(=O)(=O)c1cc(C(=O)CCCCNCCc2ccccc2OC(F)(F)F)cc2c1OCC2.Cl
6,173 to 175 °C,CC(C)NS(=O)(=O)c1cc(C(=O)CCCCNCCc2ccccc2OC(F)(F)F)cc2c1OCC2.Cl
7,169 to 171 °C,COc1ccc(C(=O)CCCCNCCc2ccccc2OC(F)(F)F)cc1S(N)(=O)=O.Cl
8,156 to 158 °C,COc1ccc(C(=O)CCCCNCCc2ccccc2OC(F)(F)F)cc1S(=O)(=O)NC(C)C.Cl
9,111 to 113 °C,Cl.NS(=O)(=O)c1cc(C(=O)CCCCNCCc2ccccc2OC(F)(F)F)cc2c1OCCO2
10,120 to 122 °C,CC(=O)Nc1cc(C(=O)CCCCNCCc2ccccc2OC(F)(F)F)cc2c1OCC2.Cl
11,106 to 108 °C,COc1ccccc1CCNCCCCC(=O)c1cc2c(c(S(N)(=O)=O)c1)CCC2.Cl
12,112 to 114 °C,CS(=O)(=O)Nc1cc(C(=O)CCCCNCCc2ccccc2OC(F)(F)F)cc2c1OCC2.Cl
13,61 to 63 °C,NS(=O)(=O)c1cc(C(O)CCCCNCCc2ccccc2OC(F)(F)F)cc2c1OCC2.O=C(O)/C=C\C(=O)O (stereo not shown)
14,167 to 169 °C,Cl.NS(=O)(=O)c1cc(C(=O)CCCCNCCc2ccccc2Cl)cc2c1CCC2
15,143 to 145 °C,CNS(=O)(=O)c1cc(C(=O)CCCCNCCc2ccccc2OC(F)(F)F)cc2c1CCC2.Cl

# Source: patent US20070099986A1, “Preventives/remedies for urinary disturbance” (priority 2005, published 2007)
